Source: US10519169B2, “3-(1H-pyrrolo[2,3-C]pyridin-2-yl)-1 H-pyrazolo[4,3-B]pyridines and therapeutic uses thereof” (Samumed, LLC, priority 2015, dated 2019)

What was measured:
[1] = tested on: primary human fibroblasts derived from IPF patients (LL29 cells) treated with TGF-β1; assay: Inhibition of fibrotic process, αSMA staining in TGF-β1 treated LL29 fibroblasts; format: cell-based; conditions: Fibroblast, 96 h, TGF-β1 20 ng/mL, 4 days, % cells positive for αSMA
Outline: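 Human IPF-derived LL29 lung fibroblasts in 1% FBS, TGF-β1 20 ng/mL, 11-point compound series, 0.1% DMSO, 4 days at 37 °C. SYTOX-positive cells excluded; % αSMA-positive cells imaged, normalized to TGF-β1/DMSO wells, EC50 by nonlinear fit. Above 10 μM, % inhibition at 10 μM given.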

[2] = tested on: Wnt activity (Sp5-Luc reporter, TCF/LEF binding sites) in SW480 colon carcinoma cells; assay: Wnt activity screening assay, Sp5-Luc reporter gene in SW480 cells; format: cell-based; conditions: Homo sapiens; for EC50: overnight incubation
Outline: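 Wnt-driven firefly luciferase in SW480 colon carcinoma cells reports pathway activity after overnight compound exposure (10 μM top concentration, 3-fold steps). Signal is normalized to DMSO controls.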

Structure (SMILES)	EC50 [2] [µM]	EC50 [1] [µM]	inhibition at 10 µM ([2]; given for EC50 >10 μM, 10 μM, read-out: percent inhibition at 10 μM) [%]
Fc1cccc(-c2cncc3[nH]c(-c4n[nH]c5ccc(-c6cncc(CN7CCCCC7)c6)nc45)cc23)c1 [Compound 15, 3-(4-(3-Fluorophenyl)-1H-pyrrolo[2,3-c]pyridin-2-yl)-5-(5-(piperidin-1-ylmethyl)pyridin-3-yl)-1H-pyrazolo[4,3-b]pyridine]	3.71	> 10	–
CN(C)Cc1cncc(-c2ccc3[nH]nc(-c4cc5c(-c6ccccc6F)cncc5[nH]4)c3n2)c1 [Compound 69, 1-(5-(3-(4-(2-Fluorophenyl)-1H-pyrrolo[2,3-c]pyridin-2-yl)-1H-pyrazolo [4,3-b]pyridin-5-yl)pyridin-3-yl)-N,N-dimethylmethanamine]	1.51	1.12	–
CN(C)c1cncc(-c2ccc3[nH]nc(-c4cc5c(-c6cccc(F)c6)cncc5[nH]4)c3n2)c1 [Compound 7, 5-(3-(4-(3-Fluorophenyl)-1H-pyrrolo[2,3-c]pyridin-2-yl)-1H-pyrazolo[4,3-b]pyridin-5-yl)-N,N-dimethylpyridin-3-amine]	0.516	0.45	–

Continued, in another order:

EC50 [2] [µM]	Structure (SMILES)	EC50 [1] [µM]	inhibition at 10 µM ([2]; given for EC50 >10 μM, 10 μM, read-out: percent inhibition at 10 μM) [%]
> 10	Cc1ccncc1-c1ccc2[nH]nc(-c3cc4c(-c5cccnc5)cncc4[nH]3)c2n1 [Compound 89, 5-(4-Methylpyridin-3-yl)-3-(4-(pyridin-3-yl)-1H-pyrrolo[2,3-c]pyridin-2-yl)-1H-pyrazolo[4,3-b]pyridine]	1.54	35.4
0.98	Cc1ccncc1-c1ccc2[nH]nc(-c3cc4c(-c5cc(F)cc(CNS(C)(=O)=O)c5)cncc4[nH]3)c2n1 [Compound 481, N-(3-Fluoro-5-(2-(5-(4-methylpyridin-3-yl)-1H-pyrazolo[4,3-b]pyridin-3-yl)-1H-pyrrolo[2,3-c]pyridin-4-yl)benzyl)methanesulfonamide]	0.262	–
